Holding throughout (experiment): Cell proliferation inhibition experiment, CellTiter-Glo (CTG) method
Assay type in all cases: cell-based
Background: ATP-based viability assays read luminescence as a measure of living cells.

In one assay the test system is A-431. The following applies: Homo sapiens, A-431, 72 h, A-431 cells, 3 days. On the procedure:
(§1) Cell Proliferation Inhibition Experiment
(§2) Compounds were tested in the selected cell lines, and solvent is set as control, nine concentrations were detected with three parallel wells for each concentration.
(§3) 2. Reagents and Materials • 1) fetal bovine serum FBS (GIBCO, Cat #10099-141) • 2) CellTiter-Glo® Luminescent Cell Viability Assay (Promega, Cat #G7572) • 3) 96-well plate with flat clear bottom, black wall plates (Corning®, Cat #3340)
(§4) The first day: Incubation and plant of cells • 1) Cells in logarithmic growth phase were harvested and counted by cell counter. Cell viability was detected by trypan blue exclusion assay to ensure that the viability of each cell line was above 90%. • 2) Cell concentration was adjusted by diluting complete culture medium, and 90 μL cell suspension was added to a 96-well plate (T0 plate and drug plate to be tested) to make the cell density reach the specified concentration. • 3) Cells in 96-well plate were incubated overnight at condition of 37° C., 5% CO2 and 95% humidity.
(§5) The second day: Reading T0 plate • 1) 10 μL culture medium was added to T0 plate. • 2) CTG reagent was melt, while the cell plate was balanced to room temperature for 30 minutes. • 3) The same volume of CTG solution was added to each well. • 4) The cell plate was vibrated for 2 minutes on an orbital shaker to lyze the cells. • 5) The cell plate was placed at room temperature for 10 minutes to stabilize the cold light signal. • 6) The cold light value was read with EnVision.
Drug Addition • 1) Drug dilution. The compounds to be tested were dissolved and packaged, then a gradient elution was performed to obtain a solution diluted 10 times. • 2) Drug addition. […] drug solution was added into each well of the 96-well plate, which was inoculated cells, three parallel wells were set for each cell concentration. The highest concentration of the compounds to be tested on A-431 was 30 μM, nine concentrations was set with 3 times dilution; while the highest concentration on NCI-H1975 and PC-9 was 1.111 μM, 9 concentrations was set with 3 times dilution. • 3) Culture. Cells in 96-well plates in which drugs have been added were cultured at condition of 37° C., 5% CO2 and 95% humidity for 3 days, and then CTG assay was performed respectively.
(§6) The third day: reading plate at the terminal • 1) CTG reagent was melt, while the cell plate was balanced to room temperature for 30 minutes. • 2) The same volume of CTG solution was added to each well. • 3) The cell plate was vibrated for 2 minutes on an orbital shaker to lyze the cells. • 4) The cell plate was placed at room temperature for 10 minutes to stabilize the cold light signal. • 5) The cold light value was read with EnVision
(§7) Data were analyzed using GraphPad Prism 5.0 software, and non-linear S curve regression was used for fitting the data to give a dose-effect curve, IC50 value was calculated accordingly. Cell Survival Rate (%)=(Lumdrugs−Lumcontrol)/(Lumcell−Lumcontrol)×100%.

The next assay concerns NCI-H1975. The following applies: for pIC50: Homo sapiens, NCI-H1975, 72 h, NCI-H1975 cells, CTG, 3 days; for A-431/NCI-H1975 Selectivity: ratio of A-431 IC50 to NCI-H1975 IC50. The protocol:
as §1, §2, §3, §4, §5
(§8) Drug Addition • 1) Drug dilution. The compounds to be tested were dissolved and packaged, then a gradient elution was performed to obtain a solution diluted 10 times. • 2) Drug addition. […] drug solution was added into each well of the 96-well plate, which was inoculated cells, three parallel wells were set for each cell concentration.
as §6, §7

The next assay concerns PC-9. The following applies: Homo sapiens, PC-9, 72 h, PC-9 cells, 3 days. On the procedure: as §1, §2, §3, §4, §5, §8, §6, §7

Molecules are shown by their SMILES. pIC50: −log10 of the molar value.

As to `C=CC(=O)Nc1cc(Nc2cc(-c3ccc4c(cnn4C)c3)ncn2)c(OCC)cc1NCCN(C)C` [compound 123], the pIC50 – broadly, the IC50 on a negative log10 scale, so that one unit is a factor of ten – with A-431 is 6.16; with NCI-H1975, 7.86; in the assay on PC-9, 7.81. In the assay with NCI-H1975, the “A-431/NCI-H1975 Selectivity” value came to 51.0.
On the same counts, the results for `C=CC(=O)Nc1cc(Nc2cc(-c3ccc4c(cnn4C)c3)ncn2)c(OCC)cc1N(C)CCN(C)C(C)C` [compound 139] are 5.94, 7.37, 7.24 and 26.8.
Turning to `C=CC(=O)Nc1cc(Nc2cc(-c3ccc4c(cnn4C)c3)ncn2)c(OC)cc1N1CCC(N2CCN(C(C)C)CC2)CC1` [compound 101], the pIC50 is 6.20 with A-431, 8.14 in the assay with NCI-H1975 and 7.71 in the assay on PC-9.
For `C=CC(=O)Nc1cc(Nc2cc(-c3ccc4c(cnn4C)c3)ncn2)c(OC(F)F)cc1OCCN1CCN(C)CC1` [compound 185], the pIC50 in the assay on A-431 is 5.69; with NCI-H1975, 7.27; in the assay with PC-9, 7.36. Besides, the “A-431/NCI-H1975 Selectivity” value in the assay with NCI-H1975 came out at 37.8.
Take `C=CC(=O)Nc1cc(Nc2cc(-c3ccc4nc(C)sc4c3)ncn2)c(OC)cc1N1CCC(N(CC)CC)CC1` [compound 191]: the pIC50 in the assay on A-431 is 5.75; in the assay on NCI-H1975, 7.04; with PC-9 it was 7.25. Besides, the “A-431/NCI-H1975 Selectivity” value with NCI-H1975 is 19.2.
As for `C=CC(=O)Nc1cc(Nc2cc(-c3ccc4c(cnn4C)c3)ncn2)c(OC)cc1OCCN(C)C(C)C` [compound 186], the pIC50 in the assay on A-431 was 5.59; in the assay with NCI-H1975 it was 7.12; in the assay with PC-9, 7.30. The “A-431/NCI-H1975 Selectivity” value in the assay with NCI-H1975 is listed as 33.7.
As for `C=CC(=O)Nc1cc(Nc2cc(-c3ccc4cnn(C)c4c3)ncn2)c(OC)cc1N1CCN(C2CCC(OC)C2)CC1` (stereo not shown) [compound 217], the pIC50 in the assay on A-431 was 5.85; in the assay on NCI-H1975 it was 7.77; in the assay with PC-9, 7.87. Moreover, in the assay on NCI-H1975, the “A-431/NCI-H1975 Selectivity” value is on record as 82.8.
On the same counts, the results for `C=CC(=O)Nc1cc(Nc2cc(-c3ccc4cnn(C)c4c3)ncn2)c(OC(F)F)cc1N(C)C1CCN(C)C1` (stereo not shown) [compound 165] are 5.58, 7.30, 7.39 and 53.0.
Regarding `C=CC(=O)Nc1cc(Nc2cc(-c3ccc4cnn(C)c4c3)ncn2)c(OC)cc1N1CCC(N2CCC(OC)CC2)CC1` [compound 205], the pIC50 is 6.05 with A-431, 7.89 in the assay with NCI-H1975 and 8.12 in the assay on PC-9.
In the case of `C=CC(=O)Nc1cc(Nc2cc(-c3ccc4ncsc4c3)ncn2)c(OC)cc1N1CCC(N2CCN(C)CC2)CC1` [compound 64], the pIC50 in the assay on A-431 was 6.16; in the assay with NCI-H1975 it was 7.88; in the assay on PC-9, 8.27. For the same compound, the “A-431/NCI-H1975 Selectivity” value in the assay with NCI-H1975 was found to be 52.6.
In the case of `C=CC(=O)Nc1cc(Nc2cc(-c3ccc4c(cnn4C)c3)ncn2)c(OC)cc1N(C)C(=O)CN(C)C` [compound 288], the pIC50 with A-431 was 5.72; in the assay with NCI-H1975, 7.01; with PC-9, 7.12. Also, the “A-431/NCI-H1975 Selectivity” value in the assay with NCI-H1975 was found to be 19.6.
As for `C=CC(=O)Nc1cc(Nc2cc(-c3ccc4c(cnn4CC)c3)ncn2)c(OCC)cc1N1C[C@@H](C)N(C)[C@@H](C)C1` [compound 91], the pIC50 in the assay with A-431 is 5.88; in the assay on NCI-H1975, 7.21; in the assay with PC-9, 7.33. The “A-431/NCI-H1975 Selectivity” value with NCI-H1975 is 21.3.
`C=CC(=O)Nc1cc(Nc2cc(-c3ccc4cnn(C)c4c3)ncn2)c(OC)cc1N(C)C1CCCN(C)C1` (stereo not shown) [compound 73]: the pIC50 is 5.99 with A-431, 7.19 with NCI-H1975 and 7.30 in the assay on PC-9. For the same compound, the “A-431/NCI-H1975 Selectivity” value in the assay with NCI-H1975 amounted to 15.7.
In the case of `C=CC(=O)Nc1cc(Nc2cc(-c3ccc4cnn(C)c4c3)ncn2)c(OC)cc1N1CCC(N2C[C@@H](C)N(C)[C@@H](C)C2)CC1` [compound 156], the pIC50 was 5.91 in the assay with A-431, 7.60 in the assay on NCI-H1975 and 8.57 in the assay with PC-9. The “A-431/NCI-H1975 Selectivity” value in the assay with NCI-H1975 was found to be 49.5.
On to `C=CC(=O)Nc1cc(Nc2cc(-c3ccc4c(cnn4C)c3)ncn2)c(OC)cc1N1CCN(C2CCC(OC)C2)CC1` (stereo not shown) [compound 216], for which the figures for the pIC50 in the assay on A-431, in the assay with NCI-H1975 and in the assay on PC-9 were 5.91, 7.87 and 7.89, respectively. Besides, the “A-431/NCI-H1975 Selectivity” value with NCI-H1975 was found to be 90.0.
On the same counts, the results for `C=CC(=O)Nc1cc(Nc2cc(-c3ccc4c(cnn4C)c3)ncn2)c(OC2CC2)cc1N(C)CCN(C)C` [compound 291] are 5.56, 7.05, 7.27 and 30.6.
On the same counts, the results for `C=CC(=O)Nc1cc(Nc2cc(-c3ccc4ncsc4c3)ncn2)c(OC)cc1N(C)CCN1CCN(C2CC2)CC1` [compound 128] are 5.86, 6.99, 7.15 and 13.2.
The matching figures for `C=CC(=O)Nc1cc(Nc2cc(-c3ccc4cnn(C)c4c3)ncn2)c(OC)cc1OCCN(C)C` [compound 169]: 5.78, 7.46, 7.94 and 47.9.
With `C=CC(=O)Nc1cc(Nc2nccc(-c3ccc4c(cnn4C)c3)n2)c(OC(F)F)cc1NCCN(C)C` [compound 249], the pIC50 in the assay on A-431 was 6.03; in the assay on NCI-H1975, 8.07; in the assay with PC-9, 7.21. In the assay on NCI-H1975, the “A-431/NCI-H1975 Selectivity” value is 109.7.
In the case of `C=CC(=O)Nc1cc(Nc2cc(-c3ccc4c(cnn4C)c3)ncn2)c(OC)cc1N(C)C1CCN(C2CCOCC2)CC1` [compound 220], the results for the pIC50 with A-431, in the assay on NCI-H1975 and in the assay on PC-9 were 5.61, 7.22 and 7.26, respectively. The “A-431/NCI-H1975 Selectivity” value in the assay on NCI-H1975 came out at 40.1.
The matching figures for `C=CC(=O)Nc1cc(Nc2cc(-c3ccc4c(cnn4C)c3)ncn2)c(OC)cc1N1CCC(CCO)CC1` [compound 270]: 5.62, 7.35, 7.26 and 54.1.
On the same counts, the results for `C=CC(=O)Nc1cc(Nc2cc(-c3ccc4cnn(C)c4c3)ncn2)c(OC)cc1N(C)C1CCN(C)C1` (stereo not shown) [compound 74] are 5.94, 7.50, 7.97 and 36.0.
Consider `C=CC(=O)Nc1cc(Nc2cc(-c3ccc4c(cnn4C)c3)ncn2)c(OC(F)F)cc1N(C)CCNC(C)C` [compound 272], for which the values for the pIC50 in the assay with A-431, in the assay with NCI-H1975 and with PC-9 were 6.01, 8.25 and 7.86, respectively. Besides, in the assay with NCI-H1975, the “A-431/NCI-H1975 Selectivity” value is 176.3.
Take `C=CC(=O)Nc1cc(Nc2cc(-c3ccc4c(cnn4C)c3)ncn2)c(OC)cc1N(C)CCNC(C)(C)C` [compound 61]: the figures for the pIC50 with A-431, in the assay with NCI-H1975 and in the assay with PC-9 were 5.79, 7.75 and 8.03, respectively.
Turning to `C=CC(=O)Nc1cc(Nc2cc(-c3ccc4cnn(C)c4c3)ncn2)c(OC(F)F)cc1N1C[C@@H](C)N[C@@H](C)C1` [compound 277], the pIC50 with A-431 is 5.70; in the assay on NCI-H1975, 7.28; in the assay with PC-9, 7.66. In addition, the “A-431/NCI-H1975 Selectivity” value in the assay on NCI-H1975 is 37.9.
For the compound `C=CC(=O)Nc1cc(Nc2cc(-c3ccc4ncsc4c3)ncn2)c(OC)cc1N(C)CCN1C[C@@H](C)N(C)[C@@H](C)C1` [compound 126], the results for the pIC50 in the assay with A-431, in the assay with NCI-H1975 and in the assay with PC-9 were 5.70, 7.07 and 7.19, respectively. In addition, the “A-431/NCI-H1975 Selectivity” value in the assay with NCI-H1975 worked out at 23.7.
Regarding `C=CC(=O)Nc1cc(Nc2cc(-c3ccc4c(cnn4C)c3)ncn2)c(OC)cc1N(C)C1CCN(C)C1` (stereo not shown) [compound 57], the pIC50 with A-431 was 5.85; in the assay on NCI-H1975, 7.88.
Regarding `C=CC(=O)Nc1cc(Nc2cc(-c3ccc4c(cnn4C)c3)ncn2)c(OC)cc1N(C)C1CCOCC1` [compound 106], in the assay on A-431, the pIC50 is 5.70. Besides, in the assay with NCI-H1975, the pIC50 was 7.01 and the “A-431/NCI-H1975 Selectivity” value stood at 20.8.
